Test results: US9765092B2, “Tricyclic piperidine compounds” (ACTELION PHARMACEUTICALS LTD, priority 2013, dated 2017)

These compounds were tested against human TPH1 (Homo sapiens (Human), UniProt P17752) (assay: Biochemical in vitro assay using fluorescence readout (TPH1 inhibition)). Settings: full length human TPH1, 40 μM L-tryptophan, 15° C., 60 minutes, fluorescence at 540 nm; mean if determined several times.
Chain of human TPH1 (P17752 whole entry): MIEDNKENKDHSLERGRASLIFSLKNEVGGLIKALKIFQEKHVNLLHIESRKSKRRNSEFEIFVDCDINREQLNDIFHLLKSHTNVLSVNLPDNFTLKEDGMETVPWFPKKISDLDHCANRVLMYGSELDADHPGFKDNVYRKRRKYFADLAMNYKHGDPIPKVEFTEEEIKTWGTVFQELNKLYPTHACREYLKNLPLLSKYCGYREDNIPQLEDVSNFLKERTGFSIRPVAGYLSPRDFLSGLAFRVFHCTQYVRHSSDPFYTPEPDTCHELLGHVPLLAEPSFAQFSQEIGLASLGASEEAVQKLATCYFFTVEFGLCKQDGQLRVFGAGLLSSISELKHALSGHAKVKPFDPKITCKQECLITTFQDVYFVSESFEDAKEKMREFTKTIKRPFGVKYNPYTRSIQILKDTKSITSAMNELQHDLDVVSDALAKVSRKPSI

| Structure (SMILES) | IC50 [nM] |
| --- | --- |
| Cc1nn2c3c(nc2s1)CCN(C(=O)COc1ccc(C(=O)NC2CC2)nc1Cl)C3c1ccc(OCCO)cc1F (stereo not drawn) [Example 1.84.1, 6-chloro-N-cyclopropyl-5-(2-(5-(2-fluoro-4-(2-hydroxyethoxy)phenyl)-2-methyl-7,8-dihydro-[1,3,4]thiadiazolo[2′,3′:2,3]imidazo[4,5-c]pyridin-6(5H)-yl)-2-oxoethoxy)picolinamide] | 14 |

Same assay, conditions: human TPH1, fluorescence readout

| Structure (SMILES) | IC50 [nM] |
| --- | --- |
| COc1ccc(C2c3c(nc4sccn34)CCN2C(=O)COc2ccc(CN3CCOCC3)cc2Cl)cc1OC (stereo not drawn) [Example 6.1.2, 2-(2-chloro-4-(morpholinomethyl)phenoxy)-1-(5-(3,4-dimethoxyphenyl)-7,8-dihydrothiazolo[2′,3′:2,3]-imidazo[4,5-c]pyridin-6(5H)-yl)ethanone] | 5 |
| Cc1nn2c3c(nc2s1)CCN(C(=O)COc1ccc(N(C)C)nc1C)C3c1ccc(C2CC2)cc1F (stereo not drawn) [Example 1.6.15, 1-(5-(4-cyclopropyl-2-fluorophenyl)-2-methyl-7,8-dihydro-[1,3,4]thiadiazolo[2′,3′:2,3]imidazo[4,5-c]pyridin-6(5H)-yl)-2-((6-(dimethylamino)-2-methylpyridin-3-yl)oxy)ethanone] | 6 |
| COc1ccc(C2c3c(nc4sccn34)CCN2C(=O)COc2ccc3ccncc3c2)c(F)c1 (stereo not drawn) [Example 6.3.3, 1-(5-(2-fluoro-4-methoxyphenyl)-7,8-dihydrothiazolo[2′,3′:2,3]imidazo[4,5-c]pyridin-6(5H)-yl)-2-(isoquinolin-7-yloxy)ethanone] | 4 |
| Cc1nn2c3c(nc2s1)CCN(C(=O)COc1ccc(C#N)cc1Cl)C3c1sc(C(=O)N(C)C)cc1F (stereo not drawn) [Example 1.24.8, 5-(6-(2-(2-chloro-4-cyanophenoxy)acetyl)-2-methyl-5,6,7,8-tetrahydro-[1,3,4]thiadiazolo[2′,3′:2,3]imidazo[4,5-c]pyridin-5-yl)-4-fluoro-N,N-dimethylthiophene-2-carboxamide] | 14 |
| Cc1nn2c3c(nc2s1)CCN(C(=O)COc1ccc(C(N)=O)nc1Cl)C3c1ncc(Cl)cc1F (stereo not drawn) [Example 1.33.4, 6-chloro-5-(2-(5-(5-chloro-3-fluoropyridin-2-yl)-2-methyl-7,8-dihydro-[1,3,4]thiadiazolo[2′,3′:2,3]imidazo[4,5-c]pyridin-6(5H)-yl)-2-oxoethoxy)picolinamide] | 7 |
| Cc1nn2c3c(nc2s1)CCN(C(=O)COc1ccc(N(C)CC(F)(F)F)nc1Cl)C3c1cc(CN(C)C)cs1 (stereo not drawn) [Example 1.8.5, 2-((2-chloro-6-(methyl(2,2,2-trifluoroethyl)amino)pyridine-3-yl)oxy)-1-(5-(4-((dimethylamino)methyl)thiophen-2-yl)-2-methyl-7,8-dihydro-[1,3,4]thiadiazolo[2′,3′:2,3]imidazo[4,5-c]pyridin-6(5H)-yl)ethanone] | 25 |
| CCc1nc(C(=O)NC2CC2)ccc1OCC(=O)N1CCc2nc3sc(C(F)F)nn3c2C1c1sc(C)nc1C (stereo not drawn) [Example 8.3.1, N-cyclopropyl-5-(2-(2-(difluoromethyl)-5-(2,4-dimethylthiazol-5-yl)-7,8-dihydro-[1,3,4]thiadiazolo[2′,3′:2,3]imidazo[4,5-c]pyridin-6(5H)-yl)-2-oxoethoxy)-6-ethylpicolinamide] | 11 |
| CS(=O)(=O)Nc1ccc(OCC(=O)N2CCc3nc4sc(C(F)(F)F)nn4c3C2c2ccc(Cl)cc2F)c(Cl)n1 (stereo not drawn) [Example 5.1.1, N-(6-chloro-5-(2-(5-(4-chloro-2-fluorophenyl)-2-(trifluoromethyl)-7,8-dihydro-[1,3,4]thiadiazolo-[2′,3′:2,3]imidazo[4,5-c]pyridin-6(5H)-yl)-2-oxoethoxy)pyridin-2-yl)methanesulfonamide] | 50 |
| Cc1nn2c3c(nc2s1)CCN(C(=O)COc1ccc(C(F)(F)F)nc1Cl)C3c1ncc(C2CC2)cc1F (stereo not drawn) [Example 1.14.3, 2-((2-chloro-6-(trifluoromethyl)pyridin-3-yl)oxy)-1-(5-(5-cyclopropyl-3-fluoropyridin-2-yl)-2-methyl-7,8-dihydro-[1,3,4]thiadiazolo[2′,3′:2,3]imidazo[4,5-c]pyridin-6(5H)-yl)ethanone] | 17 |
| Cc1ncc(OCC(=O)N2CCc3nc4sc(C)nn4c3C2c2ccc(Cl)cc2F)c(C)n1 (stereo not drawn) [Example 1.4.45, 1-(5-(4-chloro-2-fluorophenyl)-2-methyl-7,8-dihydro-[1,3,4]thiadiazolo[2′,3′:2,3]imidazo[4,5-c]pyridin-6(5H)-yl)-2-((2,4-dimethylpyrimidin-5-yl)oxy)ethanone] | 98 |
| Cc1ccc(C2c3c(nc4sccn34)CCN2C(=O)COc2ccc(Cl)cc2C)c(F)c1 (stereo not drawn) [Example 6.10.1, 2-(4-chloro-2-methylphenoxy)-1-(5-(2-fluoro-4-methyl-phenyl)-7,8-dihydrothiazolo[2′,3′:2,3]imidazo[4,5-c]-pyridin-6(5H)-yl)ethanone] | 5 |
| CS(=O)(=O)Nc1ccc(OCC(=O)N2CCc3nc4sc(C(F)F)nn4c3C2c2ccc(Cl)cc2F)c(Cl)n1 (stereo not drawn) [Example 8.1.1, N-(6-chloro-5-(2-(5-(4-chloro-2-fluorophenyl)-2-(difluoromethyl)-7,8-dihydro-[1,3,4]thiadiazolo-[2′,3′:2,3]imidazo[4,5-c]pyridin-6(5H)-yl)-2-oxoethoxy)pyridin-2-yl)methanesulfonamide] | 19 |
| CCc1nc(NS(C)(=O)=O)ccc1OCC(=O)N1CCc2nc3sc(C)nn3c2C1c1sccc1F (stereo not drawn) [Example 1.71.2, N-(6-ethyl-5-(2-(5-(3-fluorothiophen-2-yl)-2-methyl-7,8-dihydro-[1,3,4]thiadiazolo[2′,3′:2,3]imidazo[4,5-c]pyridin-6(5H)-yl)-2-oxoethoxy)pyridin-2-yl)methanesulfonamide] | 7 |
| CS(=O)(=O)Nc1ccc(OCC(=O)N2CCc3nc4sc(CF)nn4c3C2c2ccc(Cl)cc2F)c(Cl)n1 (stereo not drawn) [Example 7.1.1, N-(6-chloro-5-(2-(5-(4-chloro-2-fluorophenyl)-2-(fluoromethyl)-7,8-dihydro-[1,3,4]thiadiazolo[2′,3′:2,3-]imidazo[4,5-c]pyridin-6(5H)-yl)-2-oxoethoxy)pyridin-2-yl)methanesulfonamide] | 8 |
| Cc1ccccc1OCC(=O)N1CCc2nc3sccn3c2C1c1cnn(-c2ccccc2)c1 (stereo not drawn) [Example 6.13.4, 1-(5-(1-phenyl-1H-pyrazol-4-yl)-7,8-dihydrothiazolo-[2′,3′:2,3]imidazo[4,5-c]pyridin-6(5H)-yl)-2-(o-tolyl-oxy)ethanone] | 236 |
| O=C(COc1cccnc1Cl)N1CCc2nc3sccn3c2C1c1cc2cccnc2s1 (stereo not drawn) [Example 6.14.3, 2-((2-chloropyridin-3-yl)oxy)-1-(5-(thieno[2,3-b]pyridin-2-yl)-7,8-dihydrothiazolo[2′,3′:2,3]imidazo[4,5-c]pyridin-6(5H)-yl)ethanone] | 67 |
| Cc1nn2c3c(nc2s1)CCN(C(=O)COc1ccc(NS(C)(=O)=O)nc1Cl)C3c1ccc(Cl)cc1F (stereo not drawn) [Example 1.4.39, N-(6-chloro-5-(2-(5-(4-chloro-2-fluorophenyl)-2-methyl-7,8-dihydro-[1,3,4]thiadiazolo[2′,3′:2,3]imidazo[4,5-c]pyridin-6(5H)-yl)-2-oxoethoxy)pyridin-2-yl)methanesulfonamide] | 5 |
